Data as given in patent publication US7008636B2, “2,3,5-substituted biphenyls useful in the treatment of insulin resistance and hyperglycemia” (Wyeth, priority 1998, dated 2006).

Assays:
[1] = target: T1, recombinant, human protein tyrosine phosphatase (PTP) 1B (hPTP1B) (Homo sapiens, UniProt P18031); test: Inhibition of tri-phosphorylated insulin receptor dodecaphosphopeptide dephosphorylation by hPTP1B; format: biochemical; settings: 50 μM IR triphosphopeptide substrate, 5 min preincubation and 5 min reaction at 37° C., malachite green-ammonium molybdate phosphate detection
T1 construct: made in house
T1 sequence (P18031 1-435): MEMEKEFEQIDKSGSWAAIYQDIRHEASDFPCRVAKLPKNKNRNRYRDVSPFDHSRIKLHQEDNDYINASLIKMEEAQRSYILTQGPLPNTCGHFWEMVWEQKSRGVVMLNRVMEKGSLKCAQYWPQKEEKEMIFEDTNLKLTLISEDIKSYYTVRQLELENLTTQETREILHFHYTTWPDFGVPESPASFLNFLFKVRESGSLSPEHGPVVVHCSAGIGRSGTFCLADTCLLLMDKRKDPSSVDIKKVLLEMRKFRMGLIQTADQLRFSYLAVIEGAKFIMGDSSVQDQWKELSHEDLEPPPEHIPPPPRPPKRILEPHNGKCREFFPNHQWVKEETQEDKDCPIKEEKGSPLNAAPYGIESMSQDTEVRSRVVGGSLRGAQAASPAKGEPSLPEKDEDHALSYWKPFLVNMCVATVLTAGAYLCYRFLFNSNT

Structure (SMILES)	melting point	IC50 [1]
COc1ccc(-c2cc(C(=O)NCCCCCCCCc3ccccc3)cc(-c3cccc(Cl)c3)c2OCC(=O)O)cc1 [Example 15, [3″-Chloro-4-methoxy-5′-(8-phenyl-octylcarbamoyl)-[1,1′;3′,1″]terphenyl-2′-yloxy]-acetic acid]	79.2 to 80.5 °C	186 nM
Cc1cccc(-c2cc(C(=O)NCCCCCCCc3ccccc3)cc(-c3cccc(C)c3)c2OCC(=O)O)c1 [Example 145, [3,3″-Dimethyl-5′-(7-phenyl-heptylcarbamoyl)-[1,1′:3′,1″]terphenyl-2′-yloxy]acetic acid]	58 to 62 °C	1150 nM
O=C(NCCCCCCCCc1ccccc1)c1cc(-c2cccc(C(F)(F)F)c2)c(OCCCCc2nnn[nH]2)c(-c2cccc(C(F)(F)F)c2)c1 [Example 198]	145.4 to 150.8 °C	217 nM
O=C(O)COCCOc1c(-c2cc(Cl)cc(Cl)c2)cc(C(=O)NCCCCCCc2ccccc2)cc1-c1cc(Cl)cc(Cl)c1 [Example 22]	78.5 to 79.9 °C	250 nM
CCCCCCCCCCCCNC(=O)c1cc(-c2cc(Cl)cc(Cl)c2)c(OCC(=O)O)c(-c2cc(Cl)cc(Cl)c2)c1 [Example 159, (3,5,3″,5″-Tetrachloro-5′-dodecylcarbamoyl-[1,1′;3′,1″]terphenyl-2′-yloxy)acetic acid]	139 to 144 °C	44 nM
O=C(O)COc1c(-c2ccccc2)cc(-c2c3ccccc3cc3sc4ccccc4c23)cc1-c1ccccc1 [Example 37, (5′-Benzo[b]naphtho[2,3-d]thiophen-11-yl-[1,1′;3′,1″]terphenyl-2′-yloxy)-acetic acid]	> 136 °C (dec.)	118 nM
O=C(O)COc1c(-c2cccc(Cl)c2)cc(C(=O)NCCCCCCCCn2ccnc2)cc1-c1cccc(Cl)c1 [Example 92, [3,3″-Dichloro-5′-(8-imidazol-1-yl-octylcarbamoyl)-[1,1′;3′1″]terphenyl-2′-yloxy]acetic acid]	> 109 °C (dec.)	471 nM
O=C(O)COc1c(-c2cccc(C(F)(F)F)c2)cc(C(=O)NCCCCCCOCc2ccc(F)cc2F)cc1-c1cccc(C(F)(F)F)c1 [Example 19, {5′-[6-(2,4-Difluoro-benzyloxy)-hexylcarbamoyl]-3,3″-bis-trifluoromethyl-[1,1′;3′1″]terphenyl-2′yloxy}-acetic acid]	149.9 to 150.6 °C	728 nM
CCCCCCCCCCCCNC(=O)c1cc(-c2cccc(OC)c2)c(OCC(=O)O)c(-c2cccc(OC)c2)c1 [Example 11, (5′-Dodecylcarbamoyl-3,3″-dimethoxy-[1,1′;3′1″]terphenyl-2′-yloxy)-acetic acid]	57 to 58 °C	115 nM
COc1ccc(-c2cc(C(=O)N(C)CCCCCCCCc3ccccc3)cc(-c3cccc(Cl)c3)c2OCC(=O)O)cc1 [Example 16, {3″-Chloro-4-methoxy-5′-[methyl-(8-phenyl-octyl)-carbamoyl]-[1,1′;3′, 1″]terphenyl-2′-yloxy}-acetic acid]	66.8 to 67.5 °C	343 nM
COc1ccc2c(ccn2CCCCCCCCNC(=O)c2cc(-c3cccc(Cl)c3)c(OCC(=O)O)c(-c3cccc(Cl)c3)c2)c1 [Example 97, {3,3″-Dichloro-5′-[8-(5-methoxy-indol-1-yl)-octylcarbamoyl]-[1,1′;3′1″]terphenyl-2′-yloxy}acetic acid]	> 70 °C (dec.)	186 nM
Cc1cc(OCCCCCCCCNC(=O)c2cc(-c3cccc(Cl)c3)c(OCC(=O)O)c(-c3cccc(Cl)c3)c2)ccc1F [Example 91, {3,3″-Dichloro-5′-[8-(4-fluoro-3-methyl-phenoxy)-octylcarbamoyl]-[1,1′;3′1″]terphenyl-2′-yloxy}acetic acid]	138 to 140 °C	313 nM
CCCCCCc1cc(-c2ccccc2)c(OCC(=O)O)c(-c2ccccc2)c1 [Example 169, (5′-Hexyl-[1,1′;3′,1″]terphenyl-2′-yloxy)acetic acid]	87 to 89 °C	905 nM
O=C(O)COc1c(-c2cc(Cl)cc(Cl)c2)cc(C(=O)NCCCCCCCCc2ccccc2)cc1-c1cc(Cl)cc(Cl)c1 [Example 160, [3,5,3″,5″-Tetrachloro-5′-(8-phenyl-octylcarbamoyl)-[1,1′;3′,1″]terphenyl-2′-yloxy]acetic acid]	139 to 149 °C	54 nM
O=C(O)COc1c(-c2cccc(Cl)c2)cc(C(=O)NCCCCCCCCSc2nc3ccccc3o2)cc1-c1cccc(Cl)c1 [Example 87, {5′-[8-(Benzoxazol-2-ylsulfanyl)-octylcarbamoyl]-3,3″-dichloro-[1,1′;3′1″]-terphenyl-2′-yloxy}acetic acid]	> 68 °C (dec.)	332 nM
COc1ccc(-c2cc(C(=O)NCCCCCCCCc3ccccc3)cc(-c3cccc(C(F)(F)F)c3)c2OCC(=O)O)cc1 [Example 158, [4″-Methoxy-5′-(8-phenyl-octylcarbamoyl)-3-trifluoromethyl-[1,1′;3′,1″]terphenyl-2′-yloxy]acetic acid]	139 to 144 °C	246 nM
COc1ccc(-c2cc(C(=O)NCCCCCCCCc3ccccc3)cc(-c3ccc(OC)cc3)c2OCC(=O)[O-])cc1.[Na+] [Example 23, [4,4″-Dimethoxy-5′-(8-phenyl-octylcarbamoyl)-[1,1′;3′,1″]terphenyl-2′yloxy]acetic acid sodium salt]	> 95 °C	365 nM
COc1ccc(-c2cc(C(=O)N(C)CCCCCCCCc3ccccc3)cc(-c3cccc(C(F)(F)F)c3)c2OCC(=O)O)cc1 [Example 81, {4″-Methoxy-5′-[methyl-(8-phenyl-octyl)-carbamoyl]-3-trifluoromethyl-[1,1′;3′1″]-terphenyl-2′-yloxy}acetic acid]	> 39 °C (dec.)	330 nM
